Source: ChEMBL document CHEMBL4196062, “Trypanothione reductase inhibition and anti-leishmanial activity of all-hydrocarbon stapled α-helical peptides with improved proteolytic stability” (Eur J Med Chem, 2018)
The source made the active and inactive calls. The rule behind the calls is not given here. Positions of bridges follow the written chain, without caps; N, C: chain ends. Non-standard residues stand in square brackets, D forms with d. Residues, ends and D or L forms follow the SMILES beside them. *: point of attachment. X1 = O=C(O)c1ccc(NC(=S)*)cc1-c1c2ccc(=O)cc-2oc2cc(O)ccc12; R5 = C=CCCC[C@@](C)(N)C(=O)O; S5 = C=CCCC[C@](C)(N)C(=O)O; Nle = CCCC[C@H](N)C(=O)O; AEEA = NCCOCCOCC(=O)O

Tests used:
[1] = test system: Leishmania infantum; assay: Antileishmanial activity against Leishmania infantum MCAN/ES/89/IPZ229/1/89 axenic amastigotes infected in human THP1 cells after 24 hrs by propidium iodide staining based fluorescence microscopic analysis; type: functional, organism-based; conditions: MCAN/ES/89/IPZ229/1/89, THP-1, 24 h
[2] = test system: Leishmania infantum; assay: Antileishmanial activity against Leishmania infantum MCAN/ES/89/IPZ229/1/89 promastigotes after 24 hrs by propidium iodide staining based fluorescence microscopic analysis; type: functional, organism-based; conditions: MCAN/ES/89/IPZ229/1/89, 24 h
[3] = test system: THP-1; assay: Cytotoxicity against human THP1 cells assessed as reduction in cell viability after 24 hrs by propidium iodide staining based fluorescence microscopic analysis; conditions: THP-1, 24 h
[4] = test system: Leishmania infantum; assay: Antileishmanial activity against Leishmania infantum MCAN/ES/89/IPZ229/1/89 promastigotes at 25 uM after 24 hrs by propidium iodide staining based fluorescence microscopic analysis; type: functional, organism-based
[5] = target: Trypanothione reductase (Leishmania infantum) (UniProt A4HSF7); assay: Inhibition of dimerization of HIS/FLAG tagged Leishmania infantum trypanothione reductase assessed as dimer levels at 37.5 uM incubated for 16 hrs by ELISA; set-up: scale not given: the % may be the effect or the level left
[6] = target: Trypanothione reductase (Leishmania infantum) (UniProt A4HSF7); assay: Inhibition of dimerization of HIS/FLAG tagged Leishmania infantum trypanothione reductase assessed as dimer levels at 75 uM incubated for 16 hrs by ELISA; set-up: scale not given: the % may be the effect or the level left
[7] = test system: Leishmania infantum; assay: Antileishmanial activity against Leishmania infantum MCAN/ES/89/IPZ229/1/89 axenic amastigotes infected in human THP1 cells at 25 uM after 24 hrs by propidium iodide staining based fluorescence microscopic analysis; type: functional, organism-based
[8] = target: Trypanothione reductase (Leishmania infantum) (UniProt A4HSF7); assay: Inhibition of dimerization of HIS/FLAG tagged Leishmania infantum trypanothione reductase assessed as dimer levels at 18.75 uM incubated for 16 hrs by ELISA; set-up: scale not given: the % may be the effect or the level left
[9] = target: T1, Glutathione reductase, mitochondrial (Homo sapiens) (UniProt P00390); assay: Activation of recombinant human glutathione reductase using GSSG as substrate preincubated for 5 mins followed by substrate and NADPH addition
T1 sequence (whole entry): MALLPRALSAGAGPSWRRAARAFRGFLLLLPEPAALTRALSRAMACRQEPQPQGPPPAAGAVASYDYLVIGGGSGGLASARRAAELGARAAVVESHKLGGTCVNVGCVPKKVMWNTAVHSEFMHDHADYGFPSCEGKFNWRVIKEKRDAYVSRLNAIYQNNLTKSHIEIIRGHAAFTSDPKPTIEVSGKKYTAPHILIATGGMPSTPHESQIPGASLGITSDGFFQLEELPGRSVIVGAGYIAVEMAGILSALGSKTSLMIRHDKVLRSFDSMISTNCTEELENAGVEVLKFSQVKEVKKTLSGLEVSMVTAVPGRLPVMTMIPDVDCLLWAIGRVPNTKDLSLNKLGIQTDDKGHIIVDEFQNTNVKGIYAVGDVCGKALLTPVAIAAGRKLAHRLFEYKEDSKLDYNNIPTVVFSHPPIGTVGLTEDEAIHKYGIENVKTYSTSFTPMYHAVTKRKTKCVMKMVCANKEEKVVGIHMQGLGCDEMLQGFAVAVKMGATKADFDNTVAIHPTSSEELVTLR

[10] = target: Trypanothione reductase (Leishmania infantum) (UniProt A4HSF7); assay: Inhibition of dimerization of HIS/FLAG tagged Leishmania infantum trypanothione reductase assessed as dimer levels at 9.375 uM incubated for 16 hrs by ELISA; set-up: scale not given: the % may be the effect or the level left
[11] = target: T2, Proteinase K (Engyodontium album, UniProt P06873); assay: Drug metabolism assessed as Tritirachium album proteinase K-mediated compound degradation by measuring half life at 100 uM measured up to 480 mins by HPLC method; type: ADME; conditions: parengyodontium album
[12] = target: T3, Trypanothione reductase (Leishmania infantum, UniProt A4HSF7); assay: Inhibition of recombinant Leishmania infantum trypanothione reductase using T[S]2 as substrate preincubated for 5 mins followed by substrate and NADPH addition measured for 1 hr
[13] = target: T3, Trypanothione reductase; assay: Inhibition of dimerization of HIS/FLAG tagged Leishmania infantum trypanothione reductase incubated for 16 hrs by ELISA
[14] = target: T2, Proteinase K; assay: Drug metabolism assessed as Tritirachium album proteinase K-mediated compound degradation by measuring half life at 100 uM measured up to 360 mins by HPLC method; type: ADME; conditions: parengyodontium album

T3 sequence (A4HSF7 whole entry): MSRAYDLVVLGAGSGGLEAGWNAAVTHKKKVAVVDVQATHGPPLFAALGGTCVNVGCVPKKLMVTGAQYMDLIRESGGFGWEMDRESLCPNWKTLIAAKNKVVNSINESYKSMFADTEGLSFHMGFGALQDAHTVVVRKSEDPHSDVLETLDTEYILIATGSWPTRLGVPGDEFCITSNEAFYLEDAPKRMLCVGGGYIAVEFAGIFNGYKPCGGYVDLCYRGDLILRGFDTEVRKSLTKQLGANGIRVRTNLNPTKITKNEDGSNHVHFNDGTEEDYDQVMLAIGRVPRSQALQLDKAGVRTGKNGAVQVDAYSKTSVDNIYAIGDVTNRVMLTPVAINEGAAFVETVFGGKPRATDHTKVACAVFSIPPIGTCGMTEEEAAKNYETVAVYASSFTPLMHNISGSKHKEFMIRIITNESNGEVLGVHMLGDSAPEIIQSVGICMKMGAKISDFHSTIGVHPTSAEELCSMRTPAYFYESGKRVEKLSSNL
Chain of Trypanothione reductase (Leishmania infantum) (A4HSF7 as listed by the source): as the sequence (A4HSF7 whole entry) above
T2 sequence (P06873 whole entry): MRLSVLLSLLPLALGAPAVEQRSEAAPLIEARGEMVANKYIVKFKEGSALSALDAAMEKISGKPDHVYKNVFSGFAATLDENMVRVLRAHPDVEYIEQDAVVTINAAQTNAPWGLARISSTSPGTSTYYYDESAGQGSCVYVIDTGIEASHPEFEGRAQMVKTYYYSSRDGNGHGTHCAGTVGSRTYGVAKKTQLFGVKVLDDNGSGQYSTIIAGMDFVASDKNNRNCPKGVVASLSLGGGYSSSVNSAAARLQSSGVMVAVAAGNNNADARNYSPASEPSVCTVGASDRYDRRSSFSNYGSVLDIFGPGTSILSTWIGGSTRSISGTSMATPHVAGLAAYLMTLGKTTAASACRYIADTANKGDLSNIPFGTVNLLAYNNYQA

Row | Structure (SMILES) | Activity [4] | Activity [5] | Activity [6] | Activity [7] | Activity [8] | Activity [10] | IC50 [12] | other results
1 | CC[C@H](C)[C@H](NC(=O)[C@]1(C)CCCC=CCCC[C@](C)(NC(=O)[C@H](CCCCN)NC(=O)[C@@H]2CCCN2C(=O)[C@H](CCCNC(=N)N)NC(=O)[C@H](CCCNC(=N)N)NC(=O)[C@H](CCCNC(=N)N)NC(=O)[C@H](CCCNC(=N)N)NC(=O)[C@H](CCCNC(=N)N)NC(=O)[C@H](CCCNC(=N)N)NC(=O)[C@H](CCCNC(=N)N)NC(=O)[C@H](CCCNC(=N)N)NC(=O)[C@H](CCCNC(=N)N)NC(C)=O)C(=O)N[C@@H]([C@@H](C)CC)C(=O)N[C@@H](CCC(N)=O)C(=O)N[C@@H](CO)C(=O)NCC(=O)N1)C(=O)N[C@@H](CO)C(=O)NCC(=O)N[C@@H](CC(C)C)C(=O)NCC(N)=O (Ac-RRRRRRRRRPK[S5]IQSG[S5]ISGLG-NH2; staple 12-17) | – | – | – | – | – | – | – | EC50 [1]: 2.14 µM; EC50 [2]: 1.95 µM; EC50 [3]: 0.33 µM
2 | CCCC[C@H](NC(=O)[C@H](CC(C)C)NC(=O)[C@H](CCCC)NC(=O)[C@H](CO)NC(=O)[C@@H](NC(=O)CNC(=O)[C@]1(C)CCCC=CCCC[C@@](C)(NC(=O)[C@H](CC(C)C)NC(=O)[C@@H]2CCCN2C(C)=O)C(=O)N[C@@H]([C@@H](C)CC)C(=O)N[C@@H](CCC(N)=O)C(=O)N[C@@H](CO)C(=O)N1)[C@@H](C)CC)C(N)=O (stereo in doubt; 2a) [listing 1 of 2 here] | inactive | 153% | 181% | inactive | 130% | 114% | – | Activity [9]: Active
3 | CCCCCCCCCCCCCCCCCCOCC(COP(=O)([O-])OCC[N+](C)(C)C)OC (centres undefined) [EDELFOSINE] | – | – | – | – | – | – | – | EC50 [1]: 0.6 µM; EC50 [2]: 9 µM; EC50 [3]: 1 µM
4 | CCCC[C@@H](NC(=O)[C@H](CC(C)C)NC(=O)[C@@H](CCCC)NC(=O)[C@H](CO)NC(=O)[C@@H](NC(=O)CNC(=O)C1(C)CCCC=CCCC[C@@](C)(NC(=O)[C@@H](NC(=O)[C@H](CC(C)C)NC(=O)[C@@H]2CCCN2C(C)=O)[C@@H](C)CC)C(=O)N[C@@H](CCC(N)=O)C(=O)N[C@@H](CO)C(=O)N[C@@H](C(C)C)C(=O)N1)[C@@H](C)CC)C(N)=O (some centres undefined) | inactive | 169% | 168% | inactive | 144% | 140% | 6.4 µM | half-life at 100 µM [11]: 3.53 h; Activity [9]: Active
5 | C=CCCC[C@@](C)(NC(=O)[C@@H](NC(=O)[C@H](CO)NC(=O)[C@H](CCC(N)=O)NC(=O)[C@@](C)(CCCC=C)NC(=O)[C@@H](NC(=O)[C@H](CCCCN)NC(=O)[C@@H]1CCCN1C(C)=O)[C@@H](C)CC)C(C)C)C(=O)N[C@H](C(=O)N[C@@H](CO)C(=O)NCC(=O)N[C@@H](CCCCN)C(=O)NCC(N)=O)[C@@H](C)CC (Ac-PKI[R5]QSV[R5]ISGKG-NH2) | inactive | 175% | 184% | inactive | 145% | 125% | 12.5 µM | –
6 | CCCC[C@H](NC(=O)[C@H](CC(C)C)NC(=O)[C@H](CCCC)NC(=O)[C@H](CO)NC(=O)[C@@H](NC(=O)CNC(=O)[C@]1(C)CCCC=CCCC[C@@](C)(NC(=O)[C@H](CC(C)C)NC(=O)[C@@H]2CCCN2C(C)=O)C(=O)N[C@@H]([C@@H](C)CC)C(=O)N[C@@H](CCC(N)=O)C(=O)N[C@@H](CO)C(=O)N1)[C@@H](C)CC)C(N)=O (stereo in doubt; 2a) [listing 2 of 2 here] | – | – | – | – | – | – | 6.7 µM | half-life at 100 µM [11]: 6.97 h
7 | CCCCCCCCCCCCCCCCOP(=O)([O-])OCC[N+](C)(C)C [MILTEFOSINE] | – | – | – | – | – | – | – | EC50 [1]: 2 µM; EC50 [2]: 47.6 µM; EC50 [3]: 19 µM
8 | CCCC[C@H](NC(=O)[C@H](CC(C)C)NC(=O)[C@H](CCCC)NC(=O)[C@H](CO)NC(=O)[C@@H](NC(=O)CNC(=O)[C@]1(C)CCCC=CCCC[C@@](C)(NC(=O)[C@H](CC(C)C)NC(=O)[C@@H]2CCCN2C(C)=O)C(=O)N[C@@H]([C@@H](C)CC)C(=O)N[C@@H](CCC(N)=O)C(=O)N[C@@H](CO)C(=O)N1)[C@@H](C)CC)C(N)=O (stereo in doubt; 2b) | – | – | – | – | – | – | > 25 µM | IC50 [13]: Not Active
9 | CCCC[C@H](NC(=O)[C@H](CC(C)C)NC(=O)[C@H](CCCC)NC(=O)[C@H](CO)NC(=O)[C@@H](NC(=O)CNC(=O)[C@@H](NC(=O)[C@H](CO)NC(=O)[C@H](CCC(N)=O)NC(=O)[C@@H](NC(=O)[C@@H](NC(=O)[C@H](CC(C)C)NC(=O)[C@@H]1CCCN1C(C)=O)[C@@H](C)CC)[C@@H](C)CC)C(C)C)[C@@H](C)CC)C(N)=O | – | – | – | – | – | – | 1.2 µM | IC50 ([13]; read-out: IC50): 13.5 µM; half-life at 100 µM [14]: 0.375 to 0.383 h
10 | CC[C@H](C)[C@H](NC(=O)[C@]1(C)CCCC=CCCC[C@](C)(NC(=O)[C@H](CCCCN)NC(=O)[C@@H]2CCCN2C(=O)COCCOCCNC(=S)Nc2ccc(C(=O)O)c(-c3c4ccc(=O)cc-4oc4cc(O)ccc34)c2)C(=O)N[C@@H]([C@@H](C)CC)C(=O)N[C@@H](CCC(N)=O)C(=O)N[C@@H](CO)C(=O)NCC(=O)N1)C(=O)N[C@@H](CO)C(=O)NCC(=O)N[C@@H](CC(C)C)C(=O)NCC(N)=O ({X1-AEEA}-PK[S5]IQSG[S5]ISGLG-NH2; staple 3-8) | inactive | – | – | inactive | – | – | – | –
11 | C=CCCC[C@](C)(NC(=O)[C@H](CO)NC(=O)[C@H](CCC(N)=O)NC(=O)[C@@H](NC(=O)[C@](C)(CCCC=C)NC(=O)[C@H](CCCCN)NC(=O)[C@@H]1CCCN1C(C)=O)[C@@H](C)CC)C(=O)NCC(=O)N[C@H](C(=O)N[C@@H](CO)C(=O)N[C@@H](CCCC)C(=O)N[C@@H](CCCCN)C(=O)N[C@@H](CCCC)C(N)=O)[C@@H](C)CC (Ac-PK[S5]IQS[S5]GIS[Nle]K[Nle]-NH2) | inactive | – | – | inactive | – | – | 28.2 µM | IC50 [13]: Not Active
12 | CCCC[C@@H](NC(=O)[C@H](CC(C)C)NC(=O)[C@@H](CCCC)NC(=O)[C@H](CO)NC(=O)[C@@H](NC(=O)CNC(=O)[C@@H](NC(=O)[C@H](CO)NC(=O)[C@H](CCC(N)=O)NC(=O)[C@@H](NC(=O)[C@@H](NC(=O)[C@H](CC(C)C)NC(=O)[C@@H]1CCCN1C(C)=O)[C@@H](C)CC)[C@@H](C)CC)C(C)C)[C@@H](C)CC)C(N)=O | – | 18% | 2% | – | 56% | 59% | – | –
